Assay results published in article PMC8659148, “Drug Repurposing for Influenza Virus Polymerase Acidic (PA) Endonuclease Inhibitor” (Molecules, 2021).

Target: T1, PAN endonuclease domain from influenza A type virus (H1N1) (PAN, residues 1-197) (Influenza A virus, UniProt P03433)
T1 construct: influenza A type virus (H1N1) (PAN, residues 1-197) was cloned; His tag (inferred from pET-28a vector and IMAC purification); made in house; host or cells: E. coli BL21 (DE3)
Format: biochemical
Details: ssDNA, 1 h, 37 °C; conivaptan 0–[…], dutasteride 0–1000 μM, rifaximin 0–1000 μM, lurasidone 0–3000 μM (Figure S1)

Row | Structure (SMILES) | inhibition of the endonuclease activity of PAN (in words)
1 | C[C@]12C=CC(=O)N[C@@H]1CC[C@@H]1[C@@H]2CC[C@]2(C)[C@@H](C(=O)Nc3cc(C(F)(F)F)ccc3C(F)(F)F)CC[C@@H]12 [dutasteride] | no inhibition
2 | CO[C@H]1/C=C/O[C@@]2(C)Oc3c(C)c(O)c4c(O)c(c5c(nc6cc(C)ccn65)c4c3C2=O)NC(=O)/C(C)=C\C=C\[C@H](C)[C@H](O)[C@@H](C)[C@@H](O)[C@@H](C)[C@H](OC(C)=O)[C@@H]1C [rifaximin] | no inhibition
3 | CS(=O)(=O)c1cccc(C[C@H](NC(=O)c2c(Cl)cc3c(c2Cl)CCN(C(=O)c2ccc4ccoc4c2)C3)C(=O)O)c1 [lifitegrast] | inhibitory effect
4 | O=C1[C@@H]2[C@H]3CC[C@H](C3)[C@@H]2C(=O)N1C[C@@H]1CCCC[C@H]1CN1CCN(c2nsc3ccccc23)CC1 [lurasidone] | no inhibition
